From patent publication US9169290B2, “Peptides and their use” (priority 2007, dated 2015)
Converted amounts (≈) assume the structure as drawn. Like-named read-outs stand apart in the source and are kept apart here.

Key:
[1] = test system: A. niger; assay: Broth dilution antifungal susceptibility testing of filamentous fungi (CLSI M38-P), MIC; format: cell-based, Aspergillus niger
Experimental: (§1) Broth Dilution Antifungal Susceptibility Testing
(§2) The sensitivity of relevant fungal strains to the peptides was determined using Clinical Laboratory Standard Institute (CLSI; formerly NCCLS) Approved Standards. Fungal susceptibility was tested using “Reference Method for Broth Dilution Antifungal Susceptibility Testing of Filamentous Fungi; Approved Standard M38-P”, and yeast susceptibility was tested using “Reference Method for Broth Dilution Antifungal Susceptibility Testing of Yeasts; Approved Standard—Second Edition M27-A”.

[2] = test system: C. tropicalis; assay: Broth dilution antifungal susceptibility testing of yeasts (CLSI M27-A), MIC; format: cell-based, Candida tropicalis
Experimental: as §1, §2

[3] = test system: C. glabrata; assay: as above; format: cell-based, Candida glabrata
Experimental: as §1, §2

[4] = test system: C. krusei; format: cell-based, Candida krusei
Experimental: as §1
(§3) The sensitivity of relevant fungal strains to the peptides was determined using Clinical Laboratory Standard Institute (CLSI; formerly NCCLS) Approved Standards.

[5] = test system: C. albicans; format: cell-based, Candida albicans
Experimental: as §1, §3

[6] = test system: A. nidulans; assay: Broth dilution antifungal susceptibility testing of filamentous fungi (CLSI M38-P), MIC; format: cell-based, Aspergillus nidulans
Experimental: as §1, §2

[7] = test system: C. parapsilosis; format: cell-based, Candida parapsilosis
Experimental: as §1
The sensitivity of relevant fungal strains to the peptides was determined using Clinical Laboratory Standard Institute (CLSI; formerly NCCLS) Approved Standards. Fungal susceptibility was tested using “Reference Method for Broth Dilution Antifungal Susceptibility Testing of Filamentous Fungi; […];

[8] = test system: Cryptococcus neoformans; assay: Broth dilution antifungal susceptibility testing of yeasts (CLSI M27-A), MIC; format: cell-based; details: Cryptococcus neoformans strain DSM11959
Experimental: as §1, §2

[9] = test system: Fusarium solani; assay: Broth dilution antifungal susceptibility testing, MIC; format: cell-based; details: Fusarium solani strain NCPF2877
Experimental: as §1, §2

[10] = test system: Penicillium spp.; assay: as above; format: cell-based; details: Penicillium spp. strain DM 2006 1285b
Experimental: as §1, §2

[11] = test system: Alternaria spp.; assay: as above; format: cell-based; details: Alternaria spp. strain DM 2006 1218a
Experimental: as §1, §2

[12] = test system: Scopulariopsis brevicaulis; assay: as above; format: cell-based; details: Scopulariopsis brevicaulis strain DM 2006 1025
Experimental: as §1, §2

N=C(N)NCCC[C@@H](N)C(=O)N[C@H](CCCNC(=N)N)C(=O)N[C@H](CCCNC(=N)N)C(=O)N[C@H](CCCNC(=N)N)C(=O)N[C@H](CCCNC(=N)N)C(=O)N[C@H](CCCNC(=N)N)C(=O)N[C@H](CCCNC(=N)N)C(=O)N[C@H](CCCNC(=N)N)C(=O)N[C@H](CCCNC(=N)N)C(=O)N[C@H](CCCNC(=N)N)C(=O)N[C@H](CCCNC(=N)N)C(=O)N[C@H](CCCNC(=N)N)C(=O)N[C@H](CCCNC(=N)N)C(=O)O [NP339, dRdRdRdRdRdRdRdRdRdRdRdRdR]
MIC ([1]; A. niger strain AFG 01-60): 62.5 µM (≈ 128 µg/mL)
MIC ([1]; A. niger strain AFG 01-237): 1000 µM (≈ 2050 µg/mL)
MIC ([1]; A. niger strain AFG 01-381): 62.5 µM (≈ 128 µg/mL)
MIC ([1]; A. niger strain AFG 01-385): 1000 µM (≈ 2050 µg/mL)
MIC ([1]; A. niger strain AFG 01-423): 62.5 µM (≈ 128 µg/mL)
MIC ([1]; A. niger strain AFG 01-783): 62.5 µM (≈ 128 µg/mL)
MIC ([1]; A. niger strain AFG 01-809): 62.5 µM (≈ 128 µg/mL)
MIC ([1]; A. niger strain AFG 01-1237): 62.5 µM (≈ 128 µg/mL)
MIC ([1]; A. niger strain AFG 01-1286): 62.5 µM (≈ 128 µg/mL)
MIC ([1]; A. niger strain AFG 01-1424): 62.5 µM (≈ 128 µg/mL)
MIC ([1]; A. niger strain AFG 01-1494): 62.5 µM (≈ 128 µg/mL)
MIC ([1]; A. niger strain AFG 01-2103): 62.5 µM (≈ 128 µg/mL)
MIC ([1]; A. niger strain AFG 01-2112): 62.5 µM (≈ 128 µg/mL)
MIC ([1]; A. niger strain AFG 01-2267): 62.5 µM (≈ 128 µg/mL)
MIC ([1]; A. niger strain AFG 01-2620): >4000 µM
MIC ([1]; A. niger strain AFG 01-2840): 62.5 µM (≈ 128 µg/mL)
MIC ([1]; A. niger strain AFG J940179): 62.5 µM (≈ 128 µg/mL)
MIC ([1]; A. niger strain AFG J970467): 62.5 µM (≈ 128 µg/mL)
MIC ([1]; A. niger strain NCPF2022): 7.8 µM (≈ 16 µg/mL)
MIC ([2]; C. tropicalis strain AM2004/0087): 1 µM (≈ 2.05 µg/mL)
MIC ([2]; C. tropicalis strain AM2004/0088): 1 µM (≈ 2.05 µg/mL)
MIC ([2]; C. tropicalis strain AM2004/0089): 1 µM (≈ 2.05 µg/mL)
MIC ([2]; C. tropicalis strain AM2004/0090): 1 µM (≈ 2.05 µg/mL)
MIC ([2]; C. tropicalis strain AM2004/0091): 1 µM (≈ 2.05 µg/mL)
MIC ([2]; C. tropicalis strain ATCC750): 2 µM (≈ 4.1 µg/mL)
MIC ([3]; C. glabrata strain AM2002/0085): 2 µM (≈ 4.1 µg/mL)
MIC ([3]; C. glabrata strain AM2002/0088): 1 µM (≈ 2.05 µg/mL)
MIC ([3]; C. glabrata strain AM2007/0113): 2 µM (≈ 4.1 µg/mL)
MIC ([3]; C. glabrata strain AM2007/0114): 1 µM (≈ 2.05 µg/mL)
MIC ([3]; C. glabrata strain AM2007/0115): 2 µM (≈ 4.1 µg/mL)
MIC ([3]; C. glabrata strain AM2007/0116): 1 µM (≈ 2.05 µg/mL)
MIC ([3]; C. glabrata strain AM2007/0117): 1 µM (≈ 2.05 µg/mL)
MIC ([3]; C. glabrata strain AM2007/0118): 2 µM (≈ 4.1 µg/mL)
MIC ([3]; C. glabrata strain AM2007/0119): 1 µM (≈ 2.05 µg/mL)
MIC ([3]; C. glabrata strain AM2007/0120): 2 µM (≈ 4.1 µg/mL)
MIC ([3]; C. glabrata strain AM2007/0121): 1 µM (≈ 2.05 µg/mL)
MIC ([3]; C. glabrata strain AM2007/0122): 1 µM (≈ 2.05 µg/mL)
MIC ([3]; C. glabrata strain AM2007/0123): 1 µM (≈ 2.05 µg/mL)
MIC ([3]; C. glabrata strain AM2007/0124): 1 µM (≈ 2.05 µg/mL)
MIC ([3]; C. glabrata strain AM2007/0125): 2 µM (≈ 4.1 µg/mL)
MIC ([3]; C. glabrata strain AM2007/0126): 1 µM (≈ 2.05 µg/mL)
MIC ([3]; C. glabrata strain AM2007/0127): 1 µM (≈ 2.05 µg/mL)
MIC ([3]; C. glabrata strain AM2007/0128): 1 µM (≈ 2.05 µg/mL)
MIC ([3]; C. glabrata strain AM2007/0129): 1 µM (≈ 2.05 µg/mL)
MIC ([3]; C. glabrata strain AM2007/0130): 1 µM (≈ 2.05 µg/mL)
MIC ([4]; C. krusei strain AM2005/0492): 1 µM (≈ 2.05 µg/mL)
MIC ([4]; C. krusei strain AM2005/0494): 1 µM (≈ 2.05 µg/mL)
MIC ([4]; C. krusei strain AM2005/0496): 2 µM (≈ 4.1 µg/mL)
MIC ([4]; C. krusei strain AM2005/0498): 1 µM (≈ 2.05 µg/mL)
MIC ([4]; C. krusei strain AM2005/0525): 2 µM (≈ 4.1 µg/mL)
MIC ([4]; C. krusei strain AM2005/0531): 2 µM (≈ 4.1 µg/mL)
MIC ([4]; C. krusei strain AM2006/0127): 1 µM (≈ 2.05 µg/mL)
MIC ([4]; C. krusei strain AM2007/0102): 2 µM (≈ 4.1 µg/mL)
MIC ([4]; C. krusei strain AM2007/0103): 2 µM (≈ 4.1 µg/mL)
MIC ([4]; C. krusei strain AM2007/0104): 1 µM (≈ 2.05 µg/mL)
MIC ([4]; C. krusei strain AM2007/0105): 1 µM (≈ 2.05 µg/mL)
MIC ([4]; C. krusei strain AM2007/0106): 1 µM (≈ 2.05 µg/mL)
MIC ([4]; C. krusei strain AM2007/0107): 1 µM (≈ 2.05 µg/mL)
MIC ([4]; C. krusei strain AM2007/0109): 1 µM (≈ 2.05 µg/mL)
MIC ([4]; C. krusei strain AM30274.04): 2 µM (≈ 4.1 µg/mL)
MIC ([4]; C. krusei strain AM30308.03.05): 1 µM (≈ 2.05 µg/mL)
MIC ([4]; C. krusei strain AM30332.04.05): 2 µM (≈ 4.1 µg/mL)
MIC ([4]; C. krusei strain AM30455.04.05): 1 µM (≈ 2.05 µg/mL)
MIC ([4]; C. krusei strain AM31194/04/05): 2 µM (≈ 4.1 µg/mL)
MIC ([4]; C. krusei strain AM31300/04/05): 2 µM (≈ 4.1 µg/mL)
MIC ([4]; C. krusei strain ATCC6258): 2 µM (≈ 4.1 µg/mL)
MIC, Candida albicans ATCC90028 [5]: 2 µM (≈ 4.1 µg/mL)
MIC ([6]; A nidulans strain AFG97-71): 4000 µM (≈ 8190 µg/mL)
MIC ([6]; A nidulans strain AFG99-247): 256 µM (≈ 524 µg/mL)
MIC ([6]; A nidulans strain AFG99-1373): 62.5 µM (≈ 128 µg/mL)
MIC ([6]; A nidulans strain NCPF2691): 3.9 µM (≈ 7.99 µg/mL)
MIC ([6]; A. nidulans strain AFG00-676): 1000 µM (≈ 2050 µg/mL)
MIC ([6]; A. nidulans strain AFG01-835): 1000 µM (≈ 2050 µg/mL)
MIC ([6]; A. nidulans strain AFG01-1716): 62.5 µM (≈ 128 µg/mL)
MIC ([6]; A. nidulans strain AFG97-453): 62.5 µM (≈ 128 µg/mL)
MIC ([6]; A. nidulans strain AFG 98-281): 62.5 µM (≈ 128 µg/mL)
MIC ([6]; A. nidulans strain AFG99-2387): 62.5 µM (≈ 128 µg/mL)
MIC ([6]; A. nidulans strain AFG9811-35): 125 µM (≈ 256 µg/mL)
MIC ([6]; A. nidulans strain AFGR2952): 62.5 µM (≈ 128 µg/mL)
MIC ([7]; C. parapsilosis strain AM2004/0133): 1 to 2 µM
MIC ([7]; C. parapsilosis strain AM2005-0112): 2 µM (≈ 4.1 µg/mL)
MIC ([7]; C. parapsilosis strain AM2005/0233): 8 µM (≈ 16.4 µg/mL)
MIC ([7]; C. parapsilosis strain AM2005/0237): 1 µM (≈ 2.05 µg/mL)
MIC ([7]; C. parapsilosis strain AM2005/0238): 16 µM (≈ 32.8 µg/mL)
MIC ([7]; C. parapsilosis strain AM2005/0239): 1 µM (≈ 2.05 µg/mL)
MIC ([7]; C. parapsilosis strain AM2005/0242): 4 µM (≈ 8.19 µg/mL)
MIC ([7]; C. parapsilosis strain AM2005/0337): 2 to 16 µM
MIC ([7]; C. parapsilosis strain AM2007/0131): 4 to 32 µM
MIC ([7]; C. parapsilosis strain AM2007/0132): 16 to 32 µM
MIC ([7]; C. parapsilosis strain AM2007/0134): 4 to 32 µM
MIC ([7]; C. parapsilosis strain AM2007/0135): 1 to 2 µM
MIC ([7]; C. parapsilosis strain AM2007/0136): 2 µM (≈ 4.1 µg/mL)
MIC ([7]; C. parapsilosis strain AM2007/0137): 8 to 32 µM
MIC ([7]; C. parapsilosis strain AM2007/0138): 16 to 32 µM
MIC ([7]; C. parapsilosis strain AM2007/0139): 8 µM (≈ 16.4 µg/mL)
MIC ([7]; C. parapsilosis strain ATCC22019): 1 to 2 µM
MIC ([7]; C. parapsilosis strain ATCC90018): 2 µM (≈ 4.1 µg/mL)
MIC [8]: 1 µM (≈ 2.05 µg/mL)
MIC [9]: 3.9 µM (≈ 7.99 µg/mL)
MIC [10]: 15.6 µM (≈ 32 µg/mL)
MIC [11]: 7.8 µM (≈ 16 µg/mL)
MIC [12]: 1 µM (≈ 2.05 µg/mL)
